Measurements: the supplement of paper PMC10307832

Key:
Assay in all cases: relative viability (nuclei count vs DMSO), 5 days (fraction); higher = more cells survive
HCC-366 = tested on: HCC-366
Procedure, shortened: (§1)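 Nuclei were stained with Hoechst during a one-step fixation (final 0.05% Triton X-100, 1% formaldehyde, 1 ug/ml Hoechst) carried out 5 days after dosing, then counted on 4× images. The cells, lung cancer lines in 1536-well plates, had been dosed by pin tool the day after seeding with one drug alone or a fixed anchor-drug dose plus five library-drug doses (not always all listed) in √10 steps. Relative viability is the nuclei count in treated wells divided by that in vehicle wells, and each value is the median of duplicate plates.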

NCI-H2228 = tested on: NCI-H2228
Procedure, shortened: as §1

NCI-H23 = tested on: NCI-H23
Procedure, shortened: as §1

HOP-62 = tested on: HOP-62
Procedure, shortened: as §1

COR-L 105 = tested on: COR-L 105
Procedure, shortened: as §1

NCI-H1355 = tested on: NCI-H1355
Procedure, shortened: as §1

SW 1573 = tested on: SW 1573
Procedure, shortened: as §1

NCI-H1437 = tested on: NCI-H1437
Procedure, shortened: as §1

EMC-BAC-2 = tested on: EMC-BAC-2
Procedure, shortened: as §1

NCI-H1755 = tested on: NCI-H1755
Procedure, shortened: as §1

NCI-H1975 = tested on: NCI-H1975
Procedure, shortened: as §1

CAL-12T = tested on: CAL-12T
Procedure, shortened: as §1

LCLC-103H = tested on: LCLC-103H
Procedure, shortened: as §1

NCI-H1395 = tested on: NCI-H1395
Procedure, shortened: as §1

NCI-H727 = tested on: NCI-H727
Procedure, shortened: as §1

NCI-H460 = tested on: NCI-H460
Procedure, shortened: as §1

A-427 = tested on: A-427
Procedure, shortened: as §1

SK-LU-1 = tested on: SK-LU-1
Procedure, shortened: as §1

NCI-H1915 = tested on: NCI-H1915
Procedure, shortened: as §1

HARA = tested on: HARA
Procedure, shortened: as §1

HCC-827 = tested on: HCC-827
Procedure, shortened: as §1

NCI-H2009 = tested on: NCI-H2009
Procedure, shortened: as §1

C=C1C(=O)O[C@@H](CCCCCCCC)[C@@H]1C(=O)O [C-75] + COc1cc2c(Oc3ccc(NC(=O)C4(C(=O)Nc5ccc(F)cc5)CC4)cc3F)ccnc2cc1OCCCN1CCOCC1 [Foretinib] (partner 0.25 µM)
relative viability (HCC-366; first compound 0.08 µM): 0.909
relative viability (HCC-366; first compound 0.253 µM): 0.961
relative viability (HCC-366; first compound 0.8 µM): 0.877
relative viability (HCC-366; first compound 8 µM): 0.845
relative viability (NCI-H2228; first compound 0.08 µM): 0.803
relative viability (NCI-H2228; first compound 0.253 µM): 0.919
relative viability (NCI-H2228; first compound 0.8 µM): 0.85
relative viability (NCI-H2228; first compound 2.53 µM): 0.839
relative viability (NCI-H2228; first compound 8 µM): 0.863
relative viability (NCI-H23; first compound 0.08 µM): 0.795
relative viability (NCI-H23; first compound 0.253 µM): 1.08
relative viability (NCI-H23; first compound 0.8 µM): 1.02
relative viability (NCI-H23; first compound 2.53 µM): 0.808
relative viability (NCI-H23; first compound 8 µM): 0.881
relative viability (HOP-62; first compound 0.08 µM): 1.1
relative viability (HOP-62; first compound 0.253 µM): 1.06
relative viability (HOP-62; first compound 0.8 µM): 1.14
relative viability (HOP-62; first compound 2.53 µM): 0.966
relative viability (HOP-62; first compound 8 µM): 1.09
relative viability (COR-L 105; first compound 0.08 µM): 0.934
relative viability (COR-L 105; first compound 0.253 µM): 1.17
relative viability (COR-L 105; first compound 0.8 µM): 1.12
relative viability (COR-L 105; first compound 2.53 µM): 0.828
relative viability (COR-L 105; first compound 8 µM): 1
relative viability (NCI-H1355; first compound 0.08 µM): 0.948
relative viability (NCI-H1355; first compound 0.253 µM): 0.892
relative viability (NCI-H1355; first compound 0.8 µM): 0.972
relative viability (NCI-H1355; first compound 2.53 µM): 0.927
relative viability (NCI-H1355; first compound 8 µM): 0.958
relative viability (SW 1573; first compound 0.08 µM): 1.03
relative viability (SW 1573; first compound 0.253 µM): 0.943
relative viability (SW 1573; first compound 0.8 µM): 0.951
relative viability (SW 1573; first compound 2.53 µM): 0.74
relative viability (SW 1573; first compound 8 µM): 0.731
relative viability (NCI-H1437; first compound 0.08 µM): 1.27
relative viability (NCI-H1437; first compound 0.253 µM): 1.45
relative viability (NCI-H1437; first compound 0.8 µM): 1.28
relative viability (NCI-H1437; first compound 2.53 µM): 1.13
relative viability (NCI-H1437; first compound 8 µM): 1.23
relative viability (EMC-BAC-2; first compound 0.08 µM): 1.02
relative viability (EMC-BAC-2; first compound 0.253 µM): 1.1
relative viability (EMC-BAC-2; first compound 0.8 µM): 0.99
relative viability (EMC-BAC-2; first compound 2.53 µM): 0.904
relative viability (EMC-BAC-2; first compound 8 µM): 1.05
relative viability (NCI-H1755; first compound 0.08 µM): 0.922
relative viability (NCI-H1755; first compound 0.253 µM): 0.886
relative viability (NCI-H1755; first compound 0.8 µM): 0.94
relative viability (NCI-H1755; first compound 2.53 µM): 0.888
relative viability (NCI-H1755; first compound 8 µM): 0.878
relative viability (NCI-H1975; first compound 0.08 µM): 0.917
relative viability (NCI-H1975; first compound 0.253 µM): 0.834
relative viability (NCI-H1975; first compound 0.8 µM): 0.974
relative viability (NCI-H1975; first compound 2.53 µM): 0.785
relative viability (NCI-H1975; first compound 8 µM): 0.878
relative viability (CAL-12T; first compound 0.08 µM): 1.17
relative viability (CAL-12T; first compound 0.253 µM): 1.34
relative viability (CAL-12T; first compound 0.8 µM): 1.07
relative viability (CAL-12T; first compound 2.53 µM): 1.05
relative viability (CAL-12T; first compound 8 µM): 1.25
relative viability (LCLC-103H; first compound 0.08 µM): 0.814
relative viability (LCLC-103H; first compound 0.253 µM): 0.736
relative viability (LCLC-103H; first compound 0.8 µM): 0.687
relative viability (LCLC-103H; first compound 2.53 µM): 0.598
relative viability (LCLC-103H; first compound 8 µM): 0.743
relative viability (NCI-H1395; first compound 0.08 µM): 0.894
relative viability (NCI-H1395; first compound 0.253 µM): 1.02
relative viability (NCI-H1395; first compound 0.8 µM): 0.948
relative viability (NCI-H1395; first compound 2.53 µM): 1.03
relative viability (NCI-H1395; first compound 8 µM): 1.13
relative viability (NCI-H727; first compound 0.08 µM): 0.796
relative viability (NCI-H727; first compound 0.253 µM): 1.33
relative viability (NCI-H727; first compound 0.8 µM): 0.695
relative viability (NCI-H727; first compound 8 µM): 0.917
relative viability (NCI-H460; first compound 0.08 µM): 1.01
relative viability (NCI-H460; first compound 0.253 µM): 1.09
relative viability (NCI-H460; first compound 0.8 µM): 0.891
relative viability (NCI-H460; first compound 8 µM): 0.977
relative viability (A-427; first compound 0.08 µM): 0.898
relative viability (A-427; first compound 0.253 µM): 1.18
relative viability (A-427; first compound 0.8 µM): 0.969
relative viability (A-427; first compound 2.53 µM): 1.03
relative viability (A-427; first compound 8 µM): 0.992
relative viability (SK-LU-1; first compound 0.08 µM): 0.794
relative viability (SK-LU-1; first compound 0.253 µM): 0.721
relative viability (SK-LU-1; first compound 0.8 µM): 0.881
relative viability (SK-LU-1; first compound 2.53 µM): 0.736
relative viability (SK-LU-1; first compound 8 µM): 0.766
relative viability (NCI-H1915; first compound 0.08 µM): 1.04
relative viability (NCI-H1915; first compound 0.253 µM): 1.1
relative viability (NCI-H1915; first compound 0.8 µM): 1.03
relative viability (NCI-H1915; first compound 2.53 µM): 1.07
relative viability (NCI-H1915; first compound 8 µM): 1.05
relative viability (HARA; first compound 0.08 µM): 0.822
relative viability (HARA; first compound 0.253 µM): 0.93
relative viability (HARA; first compound 0.8 µM): 0.819
relative viability (HARA; first compound 2.53 µM): 0.769
relative viability (HARA; first compound 8 µM): 0.979
relative viability (HCC-827; first compound 0.08 µM): 1.02
relative viability (HCC-827; first compound 0.253 µM): 1.05
relative viability (HCC-827; first compound 0.8 µM): 1.04
relative viability (HCC-827; first compound 2.53 µM): 0.965
relative viability (HCC-827; first compound 8 µM): 0.945
relative viability (NCI-H2009; first compound 0.08 µM): 1.21
relative viability (NCI-H2009; first compound 0.253 µM): 1.2
relative viability (NCI-H2009; first compound 0.8 µM): 1.12
relative viability (NCI-H2009; first compound 2.53 µM): 1.13
relative viability (NCI-H2009; first compound 8 µM): 1.04
